Earlier results in patent publication US12458674B2, “M13 phage based gene therapy platform” (Massachusetts Institute of Technology, priority 2021, dated 2025).

Conditions: in vivo

Cn1nnc2c(C(N)=O)ncn2c1=O [temozolomide]
CSF to plasma ratio: about 20%
